Patent US11083717B2, “Compositions and methods for drug sensitization of parasites” (The Texas A&M University System, priority 2015, dated 2021)

How the values were obtained:
[1] = Kinetic solubility; format: physicochemical
[2] = test system: CP; assay: Calf study of CP infection; format: in vivo, calves
Experimental: New born calves are susceptible to CP infection. They can develop severe diarrhea like humans. Calves were inoculated with 5×10^7 CP oocysts/calf on day 0. Calves had diarrhea in both the groups at onset of dosing. Treatment was started on day 3. Calves were given NZ-369 @ 8.5 mg/kg every 12 hrs for 5 days. Fecal volume, urine volume, daily clinical evaluation, fecal consistency scores and weight gains were evaluated.

[3] = test system: Eimeria; assay: Coccidiosis in broiler chicks, duodenal lesion scores; format: in vivo; details: 20 mg/bird daily by oral gavage, FIG. 7
Experimental: To determine the effects of NZ-366 and NZ-369 on coccidiosis in broiler chicks, experimental animals were divided into 4 treatment groups: Unmedicated (UNM), those receiving the experimental compounds (366 and 369); and those receiving Salinomycin (SAL).
Compounds NZ-366 and NZ-369 were administered at a dose of 20 mg/bird by oral gavage daily beginning from 11 days post-hatching. Salinomycin was administered in-feed beginning from 10 days post-hatching. Broilers were administered a 1000× dose of coccidiosis vaccine by oral gavage at 13 days post-hatching.
Lesion scores in the duodenum were lower in broiler chicks administered NZ-369 as compared to unmedicated broilers and those administered NZ-366. […] In FIG. 7, lesion scores expressed as the mean±SEM from 24 broilers per treatment.

[4] = target: Human ether-a-go-go-related gene (hERG) (Homo sapiens, UniProt Q12809); assay: hERG test (potential cardiotoxicity); format: biochemical; details: read-out: hERG (Abbvie)
Sequence of Human ether-a-go-go-related gene (hERG) (Q12809 whole entry): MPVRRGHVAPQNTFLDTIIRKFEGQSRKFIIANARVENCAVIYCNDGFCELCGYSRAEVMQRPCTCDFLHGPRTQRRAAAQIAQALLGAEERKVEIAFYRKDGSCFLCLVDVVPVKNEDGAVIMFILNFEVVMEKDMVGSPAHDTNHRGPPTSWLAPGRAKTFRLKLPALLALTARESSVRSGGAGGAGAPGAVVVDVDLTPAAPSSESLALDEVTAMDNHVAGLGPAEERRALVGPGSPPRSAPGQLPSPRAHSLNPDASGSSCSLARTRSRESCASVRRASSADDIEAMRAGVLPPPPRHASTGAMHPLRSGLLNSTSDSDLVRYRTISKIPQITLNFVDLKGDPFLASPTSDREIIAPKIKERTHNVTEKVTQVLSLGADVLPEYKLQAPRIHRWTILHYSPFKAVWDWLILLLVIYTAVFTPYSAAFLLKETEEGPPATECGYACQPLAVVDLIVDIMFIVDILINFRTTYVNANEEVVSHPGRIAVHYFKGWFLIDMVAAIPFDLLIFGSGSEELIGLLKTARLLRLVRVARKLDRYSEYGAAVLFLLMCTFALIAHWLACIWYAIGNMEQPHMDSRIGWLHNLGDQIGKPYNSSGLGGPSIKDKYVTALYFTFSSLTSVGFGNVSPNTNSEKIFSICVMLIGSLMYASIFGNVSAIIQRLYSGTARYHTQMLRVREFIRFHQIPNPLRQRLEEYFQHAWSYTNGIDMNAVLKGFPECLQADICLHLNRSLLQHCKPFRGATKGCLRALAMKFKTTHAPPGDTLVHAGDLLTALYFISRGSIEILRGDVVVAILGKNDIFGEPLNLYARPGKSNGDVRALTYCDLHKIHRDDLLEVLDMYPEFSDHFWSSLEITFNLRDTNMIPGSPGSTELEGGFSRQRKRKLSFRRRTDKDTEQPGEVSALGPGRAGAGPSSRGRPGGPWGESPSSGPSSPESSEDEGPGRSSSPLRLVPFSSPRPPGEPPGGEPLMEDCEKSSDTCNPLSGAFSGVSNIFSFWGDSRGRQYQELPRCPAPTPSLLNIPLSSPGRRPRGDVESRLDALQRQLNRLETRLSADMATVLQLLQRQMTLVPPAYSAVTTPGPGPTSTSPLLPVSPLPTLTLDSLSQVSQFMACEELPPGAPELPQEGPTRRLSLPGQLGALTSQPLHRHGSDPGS

[5] = test system: Cryptosporidium parvum
Experimental: The anticryptosporidial activity of the in vitro inhibitors was assessed in the IL-12 knockout mouse model that resembles the acute human disease (Ehigiator H N, Romagnoli P, Borgelt K, Fernandez M, McNair N, Secor W E, Mead J R. 2005. Mucosal cytokine and antigen-specific responses to Cryptosporidium parvum in IL-12p40 KO mice. Parasite Immunol. 27: 17-28; Campbell L D, Stewart J N, Mead J R. 2002. Susceptibility to Cryptosporidium parvum infections in cytokine- and chemokine-receptor knockout mice. J. Parasitol. 88:1014-1016). The protocol was approved by the Institutional Animal Care and Use Committees of Emory University, the AtlantaVAMedical Center, and Brandeis University. Mice (6 to 10 per group) were inoculated with 1,000 purified CP oocysts (Iowa isolate, from cattle). Treatment by gavage began 4 h postinfection with either vehicle (5% dimethyl sulfoxide (DMSO) in canola oil), 50-100 mg/kg compound, or 2,000 mg/kg paromomycin. Compounds were given for 7 days, and mice were sacrificed on day 8 (peak infection). Parasite load was quantified by fluorescence-activated cell sorting (FACS) assays for the presence of the oocysts in the feces at days 0, 4, and 7. Fecal pellets from individual mice were routinely collected daily and homogenized in adjusted volumes of 2.5% potassium dichromate. Samples were processed individually. Aliquots (200 ul) of vortexed samples were processed over microscale sucrose gradients as previously described (Arrowood M J, Hurd M R, Mead J R. 1995. A new method for evaluating experimental cryptosporidial parasite loads using immunofluorescent flowcytometry. J. Parasitol. 81:404-409). The oocyst-containing fraction was collected, washed, and treated with monoclonal antibody (OW5O-FITC) for 20 min. Samples were adjusted to 600 ul, and a portion (100 ul) was assayed with a 102-s sampling interval using logical gating of forward/side scatter and OW5O-FITC fluorescence signal on a Becton, Dickinson FACScan flow cytometer. Flow cytometry data were evaluated by analysis of variance (KaleidaGraph (Synergy Software, Reading Pa.); Microsoft Excel (Microsoft Corporation, Redmond, Wash.)).
NZ-366 (50 mg/kg) and NZ-369 (100 mg/kg) were administered via gavage in a single daily dose to IL-12 knockout mice that were infected with 1,000 CP oocysts. Additional control groups included those treated with single daily doses of vehicle, and paromomycin (Prm) (2,000 mg/kg), by oral gavage.

[6] = NZ-366 50 mg/kg, NZ-369 100 mg/kg, paromomycin 2,000 mg/kg

CNC(=O)C(C)c1ccc(Oc2nc3ccc(Cl)cc3s2)cc1 (centres unmarked) [NZ-369, 2-{4-[(6-chloro-1,3-benzothiazol-2-yl)oxy]phenyl}-N-methylpropanamide]
Kinetic Sol. [1]: 86 µM | fecal volume vs control ([2]; 8.5 mg/kg every 12 hrs for 5 days from day 3, through day 8 post infection, FIG. 2): marked reduction in fecal volume | clinical evaluation scores ([2]; 8.5 mg/kg every 12 hrs for 5 days, FIG. 4): higher clinical evaluation scores and greater improvement post-infection | weight over the trial period vs control calf ([2]; 8.5 mg/kg every 12 hrs for 5 days, FIG. 6): maintained their weight | fecal consistency score vs control calves ([2]; 8.5 mg/kg every 12 hrs for 5 days, days 4-7 post infection, FIG. 5): lower fecal consistency score | urine output vs control calves ([2]; 8.5 mg/kg every 12 hrs for 5 days, except on day 4 post-infection, FIG. 3): Greater urine output | lesion scores in the duodenum vs unmedicated broilers and NZ-366 [3]: lower | reduction of duodenal lesion scores compared with Salinomycin ([3]; Salinomycin in-feed): comparable to broiler chicks administered Salinomycin | IC50 [4]: > 30 µM | Mouse Model (Mead) DPI7 ([5]; @100 mg/kg, day 7 post infection): DPI7 = 70% | overt toxicity in the treated infected mice ([5]; NZ-366 50 mg/kg, NZ-369 100 mg/kg, 7 days): no overt toxicity | anticryptosporidial activity, fecal oocysts day 7 post infection ([5]; NZ-366 50 mg/kg, NZ-369 100 mg/kg, gavage, single daily dose, FIG. 1): have anticryptosporidial activity | effectiveness compared with paromomycin after a single dose [5, 6]: more effective than paromomycin | effectiveness compared with paromomycin over the course of the study [5, 6]: equally as effective as paromomycin
